Results: BindingDB's records for doi:10.1021/acschembio.6b00217 (Broad Institute, 2016)

Biological target: Serine/threonine-protein kinase SIK2 (Homo sapiens, UniProt Q9H0K1)
Test: Caliper-based Mobility Shift Assay
Conditions: pH 8
Method: IC50‘s for HG-9-91-01 derivatives were measured by Caliper-based mobility shift assay (PerkinElmer). […] Reactions were quenched by adding 20 mM EDTA (pH 8) after 1 hr, and percentage of substrate conversion was measured by LabChip EZ Reader II (PerkinElmer).

Chain of Serine/threonine-protein kinase SIK2 (Q9H0K1 whole entry): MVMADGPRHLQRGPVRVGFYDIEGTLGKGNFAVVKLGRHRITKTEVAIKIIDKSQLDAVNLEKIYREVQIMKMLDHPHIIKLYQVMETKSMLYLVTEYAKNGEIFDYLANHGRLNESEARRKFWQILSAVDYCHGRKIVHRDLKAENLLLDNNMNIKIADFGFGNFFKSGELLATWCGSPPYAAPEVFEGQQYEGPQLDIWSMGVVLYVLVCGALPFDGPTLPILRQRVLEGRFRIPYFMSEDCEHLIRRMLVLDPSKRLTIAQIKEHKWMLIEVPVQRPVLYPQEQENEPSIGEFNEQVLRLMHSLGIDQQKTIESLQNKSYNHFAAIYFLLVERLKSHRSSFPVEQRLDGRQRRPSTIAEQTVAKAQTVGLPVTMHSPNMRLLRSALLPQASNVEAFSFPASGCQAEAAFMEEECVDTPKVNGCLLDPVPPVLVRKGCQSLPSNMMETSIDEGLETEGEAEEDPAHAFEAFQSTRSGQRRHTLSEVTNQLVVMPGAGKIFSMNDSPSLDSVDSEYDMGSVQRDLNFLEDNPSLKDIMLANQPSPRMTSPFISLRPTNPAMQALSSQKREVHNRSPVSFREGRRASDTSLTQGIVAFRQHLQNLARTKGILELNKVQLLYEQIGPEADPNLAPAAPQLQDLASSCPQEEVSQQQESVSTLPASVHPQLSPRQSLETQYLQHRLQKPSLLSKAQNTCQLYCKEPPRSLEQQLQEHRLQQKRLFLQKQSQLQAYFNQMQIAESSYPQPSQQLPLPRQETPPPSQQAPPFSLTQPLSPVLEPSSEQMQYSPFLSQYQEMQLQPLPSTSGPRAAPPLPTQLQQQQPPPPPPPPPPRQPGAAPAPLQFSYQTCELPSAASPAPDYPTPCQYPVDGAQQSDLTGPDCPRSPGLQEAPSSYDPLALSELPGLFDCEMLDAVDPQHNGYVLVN

IC50 [nM]	SMILES
6	COc1ccc(N2C(=O)N(c3c(C)cccc3Cl)Cc3cnc(Nc4ccc(N5CCN(C)CC5)cc4)nc32)nc1 [YKL-05-095 (3)]
> 7000	COc1ccc(N2C(=O)N(c3c(C)cccc3C)Cc3cnc(Nc4ccc(C5CCN(C)CC5)cc4OC(C)C)nc32)nc1 [HG-9-91-01 derivative, 7]
34	COc1ccc(N2C(=O)N(c3c(C)cccc3Cl)Cc3cnc(Nc4ccc(N5CCN(C)CC5)cc4OC)nc32)nc1 [YKL-05-096 (4)]
150	CCOc1cc(C2CCN(C)CC2)ccc1Nc1ncc2c(n1)N(c1ccc(OC)cn1)C(=O)N(c1c(C)cccc1Cl)C2 [HG-9-91-01 derivative, 6]
